Key:
NCI-H522 = experiment: NCI-60 SRB screening (one-dose and five-dose); type: cell-based, human; details: 48 h; for Growth Percent: NCI-H522, 10 μM
Procedure, shortened: (§1)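 Cells received compound at one concentration for 48 h. Growth was read by sulforhodamine B protein staining, as percentage versus untreated controls. Mean graph midpoints averaged each parameter over all cell lines, with insensitive lines entered at the highest tested concentration.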

LOX IMVI = experiment: NCI-60 SRB screening (one-dose and five-dose); type: cell-based, human; details: 48 h; for Growth Percent: 10 μM
Procedure, shortened: as §1

SF-539 = experiment: NCI-60 SRB screening (one-dose and five-dose); type: cell-based, human; details: 48 h; for Growth Percent: SF-539, 10 μM
Procedure, shortened: (§2)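 Spectrophotometric SRB end point; 48-h drug exposure; percent of untreated-control growth reported.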

PC-3 = experiment: NCI-60 SRB screening (one-dose and five-dose); type: cell-based, human; details: 48 h; for Growth Percent: PC-3, 10 μM
Procedure, shortened: as §2

SR = experiment: NCI-60 SRB screening (one-dose and five-dose); type: cell-based, human; details: 48 h; for Growth Percent: 10 μM
Procedure, shortened: as §1

T-47D = experiment: NCI-60 SRB screening (one-dose and five-dose); type: cell-based, human; details: 48 h; for Growth Percent: T-47D, 10 μM
Procedure, shortened: (§3)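 After a 48-h incubation with compound, cellular protein was stained with SRB and growth estimated by spectrophotometry relative to untreated controls.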

SNB-19 = experiment: NCI-60 SRB screening (one-dose and five-dose); type: cell-based, human; details: 48 h; for Growth Percent: SNB-19, 10 μM
Procedure, shortened: as §2

UACC-62 = experiment: NCI-60 SRB screening (one-dose and five-dose); type: cell-based, human; details: 48 h; for Growth Percent: UACC-62, 10 μM
Procedure, shortened: as §2

IGROV1 = experiment: NCI-60 SRB screening (one-dose and five-dose); type: cell-based, human; details: 48 h; for Growth Percent: IGROV1, 10 μM
Procedure, shortened: as §3

RPMI-8226 = experiment: NCI-60 SRB screening (one-dose and five-dose); type: cell-based, human; details: 48 h; for Growth Percent: RPMI-8226, 10 μM
Procedure, shortened: as §2

COLO 205 = experiment: NCI-60 SRB screening (one-dose and five-dose); type: cell-based, human; details: 48 h; for Growth Percent: COLO 205, 10 μM
Procedure, shortened: as §2

NCI-H226 = experiment: NCI-60 SRB screening (one-dose and five-dose); type: cell-based, human; details: 48 h; for Growth Percent: NCI-H226, 10 μM
Procedure, shortened: as §2

U251 = experiment: NCI-60 SRB screening (one-dose and five-dose); type: cell-based, human; details: 48 h; for Growth Percent: U251, 10 μM
Procedure, shortened: as §1

CAKI-1 = experiment: NCI-60 SRB screening (one-dose and five-dose); type: cell-based, human; details: 48 h; for Growth Percent: CAKI-1, 10 μM
Procedure, shortened: as §3

HT29 = experiment: NCI-60 SRB screening (one-dose and five-dose); type: cell-based, human; details: 48 h; for Growth Percent: HT29, 10 μM
Procedure, shortened: as §3

SNB-75 = experiment: NCI-60 SRB screening (one-dose and five-dose); type: cell-based, human; details: 48 h; for Growth Percent: SNB-75, 10 μM
Procedure, shortened: as §3

NCI-H23 = experiment: NCI-60 SRB screening (one-dose and five-dose); type: cell-based, human; details: 48 h; for Growth Percent: NCI-H23, 10 μM
Procedure, shortened: as §3

HOP-62 = experiment: NCI-60 SRB screening (one-dose and five-dose); type: cell-based, human; details: 48 h; for Growth Percent: HOP-62, 10 μM
Procedure, shortened: as §2

A549/ATCC = experiment: NCI-60 SRB screening (one-dose and five-dose); type: cell-based, human; details: 48 h; for Growth Percent: 10 μM
Procedure, shortened: as §2

[1] = system: NCI-60 cancer cell line panel; experiment: NCI-60 cancer cell line panel screening (whole panel / subpanels); type: cell-based; details: single dose 10 µM
Experimental: At first, compounds were tested in a single high dose concentration regimen (10 µM) against a panel of sixty various cancer cell lines; the results of the screening are outlined in Table 1 in the form of percent growth (GP %) of treated cells versus untreated cells used as control, where negative numbers indicate cell kill. The experimental results of growth inhibition may range from 0 to 100 and indicate a cytostatic effect while negative values indicate cell death and thus a cytotoxic activity (for NCI data see Supplementary Material Figures S6–S12).
The selectivity index (SI) was calculated by dividing the full panel MG_MID60 (μM) of tested compounds by their individual subpanel MG_MID of the cell line (μM); it correlates directly to the selectivity of their anticancer activity (Table 3). […] By contrast, despite its strong antiproliferative effect, compound 7 acts with low selectivity against the various human tumor cell lines, the highest SI value being 1.73.
Compounds 1, 2, and 4–8 were tested at one dose assay (10^−5 M) toward a panel of approximately sixty cancer cell lines representing different cancer types: leukemia, melanoma, lung, colon, CNS, ovarian, renal, prostate, and breast cancers. Primary anticancer assays were performed according to the NCI protocol as described elsewhere (see, e.g., http://dtp.nci.nih.gov accessed on 16 October 2019). The compounds were added at a single concentration and the cell cultures were incubated for 48 h. The end point determinations were made with a protein binding dye, sulforhodamine B (SRB). The results for each compound are reported as the percent growth (GP %) of treated cells compared to untreated control cells (negative numbers indicate cell kill). Compounds with considerable activity against all tested human tumor cell lines (6 and 7) were selected for the advanced assay against a panel of approximately sixty tumor cell lines at 10-fold dilutions of five concentrations (100 µM, 10 µM, 1 µM, 0.1 µM, and 0.01 µM). The percentage of growth was evaluated spectrophotometrically versus controls not treated with test agents after 48-h exposure and using SRB protein assay to estimate cell viability or growth. Three antitumor activity dose–response parameters were calculated for each cell line: GI50—molar concentration of the compound that inhibits 50% net cell growth; TGI—molar concentration of the compound leading to the total inhibition; and LC50—molar concentration of the compound leading to 50% net cell death (presented in negative logarithm). Furthermore, mean graph midpoints (MG_MID) were calculated for each of the parameters, giving an average activity parameter over all cell lines for the tested compound. For the MG_MID calculation, insensitive cell lines were included with the highest concentration tested.

A498 = experiment: NCI-60 SRB screening (one-dose and five-dose); type: cell-based, human; details: 48 h; for Growth Percent: A498, 10 μM
Procedure, shortened: as §1

[2] = Homo sapiens, five dose 0.01–100 μM

Compound	Growth Percent (NCI-H522)	Growth Percent (LOX IMVI)	Growth Percent (SF-539)	Growth Percent (PC-3)	Growth Percent (SR)	Growth Percent (T-47D)	Growth Percent (SNB-19)	Growth Percent (UACC-62)	Growth Percent (IGROV1)	Growth Percent (RPMI-8226)	Growth Percent (COLO 205)	Growth Percent (NCI-H226)	Growth Percent (U251)	Growth Percent (CAKI-1)	Growth Percent (HT29)	Growth Percent (SNB-75)	Growth Percent (NCI-H23)	Growth Percent (HOP-62)	Growth Percent (A549/ATCC)	Growth Percent (A498)	other results
CC(=O)O[C@H]1CC[C@]2(C)[C@H]3CC[C@@H]4[C@H]5[C@H](C)[C@@]6(C)OC[C@]5(CC[C@@]4(C)[C@]3(C)CC[C@H]2C1(C)C)CC6C(C)=O (some centres unmarked) [Compound 1]	75.59%	58.17%	82.82%	48.79%	62.46%	74.66%	88.73%	49.11%	51.77%	47.53%	71.47%	91.65%	77.27%	74.02%	80.13%	106.15%	84.77%	100.79%	88.63%	–	Antiproliferative / cytotoxic activity in words [1]: completely lacks activity
CC(=O)[C@H]1C[C@]23CC[C@]4(C)[C@H](CC[C@@H]5[C@@]6(C)CCC(=O)C(C)(C)[C@@H]6CC[C@]54C)[C@H]2[C@H](C)[C@@]1(C)OC3 [Compound 2, 3-oxo-21β-acetyl-20β,28-epoxy-18α,19βH-ursane]	–	94.48%	95.15%	87.23%	92.32%	106.29%	98.03%	85.81%	88.93%	102.14%	111.81%	95.16%	107.36%	66.38%	108.96%	72.80%	90.60%	80.72%	93.03%	67.96%	–
C[C@H]1[C@@H]2[C@H]3CC[C@@H]4[C@@]5(C)CC[C@H](O)C(C)(C)[C@@H]5CC[C@@]4(C)[C@]3(C)CC[C@]23CO[C@@]1(C)C(C(=O)/C=C/c1cccnc1)C3 (some centres unmarked) [Compound 4]	37.96%	51.47%	77.76%	21.26%	–	30.20%	71.61%	41.49%	80.59%	9.55%	56.27%	76.56%	58.63%	55.59%	99.49%	72.76%	59.51%	81.73%	57.76%	72.89%	–
C[C@H]1[C@@H]2[C@H]3CC[C@@H]4[C@@]5(C)CC[C@H](O)C(C)(C)[C@@H]5CC[C@@]4(C)[C@]3(C)CC[C@]23CO[C@@]1(C)[C@@H](C(=O)/C=C/c1ccco1)C3 [Compound 5, 3β-Hydroxy-21-[3-(2E-furyl)-prop-2-en-1-one]-20β,28-epoxy-18α,19βH-ursane]	87.83%	89.02%	99.66%	92.69%	–	84.80%	75.34%	7.16%	107.89%	105.93%	−2.30%	99.66%	69.38%	55.81%	98.06%	78.39%	98.55%	104.25%	103.89%	96.19%	–
COC(=O)[C@]12CC[C@@H](C(C)=O)[C@@H]1[C@H]1CC[C@@H]3[C@@]4(C)C/C(=C\c5cccnc5)C(=O)C(C)(C)[C@@H]4CC[C@@]3(C)[C@]1(C)CC2 [Compound 8, Methyl 3,20-dioxo-2-(3-pyridinylidene)-29-nor-lup-28-oate]	47.50%	–	81.03%	24.42%	12.35%	24.42%	67.72%	34.54%	85.80%	2.88%	82.53%	48.05%	56.61%	51.03%	16.53%	110.35%	53.20%	102.96%	51.40%	80.56%	–
COc1cccc2c1C(=O)c1c(O)c3c(c(O)c1C2=O)C[C@@](O)(C(=O)CO)C[C@@H]3O[C@H]1C[C@H](N)[C@H](O)[C@H](C)O1 [Doxorubicin, reference compound]	–	–	–	–	–	–	–	–	–	–	–	–	–	–	–	–	–	–	–	–	GI50 (A498; Homo sapiens, A498, five dose 0.01–100 μM): 100 nM; GI50 (NCI-H522; Homo sapiens, NCI-H522, five dose 0.01–100 μM): 30 nM; GI50 (LOX IMVI; [2]): 70 nM; GI50 (SF-539; Homo sapiens, SF-539, five dose 0.01–100 μM): 120 nM; GI50 (PC-3; Homo sapiens, PC-3, five dose 0.01–100 μM): 320 nM; GI50 (SR; [2]): 30 nM; GI50 (T-47D; Homo sapiens, T47D, T -47D, five dose 0.01–100 μM): 60 nM; GI50 (SNB-19; Homo sapiens, SNB-19, five dose 0.01–100 μM): 40 nM; GI50 (UACC-62; Homo sapiens, UACC-62, five dose 0.01–100 μM): 120 nM; GI50 (IGROV1; Homo sapiens, IGROV-1, IGROV1, five dose 0.01–100 μM): 170 nM; GI50 (RPMI-8226; Homo sapiens, RPMI-8226, five dose 0.01–100 μM): 80 nM; GI50 (COLO 205; Homo sapiens, COLO 205, five dose 0.01–100 μM): 180 nM; GI50 (NCI-H226; Homo sapiens, NCI-H226, five dose 0.01–100 μM): 50 nM; GI50 (U251; Homo sapiens, U-251, U251, five dose 0.01–100 μM): 40 nM; GI50 (CAKI-1; Homo sapiens, CAKI-1, five dose 0.01–100 μM): 950 nM; GI50 (HT29; Homo sapiens, HT-29, HT29, five dose 0.01–100 μM): 120 nM; GI50 (SNB-75; Homo sapiens, SNB-75, five dose 0.01–100 μM): 70 nM; GI50 (NCI-H23; Homo sapiens, NCI-H23, five dose 0.01–100 μM): 150 nM; GI50 (HOP-62; Homo sapiens, HOP-62, five dose 0.01–100 μM): 70 nM; GI50 (A549/ATCC; [2]): 60 nM

Reference: publication PMC8509773, “3-Pyridinylidene Derivatives of Chemically Modified Lupane and Ursane Triterpenes as Promising Anticancer Agents by Targeting Apoptosis” (International Journal of Molecular Sciences, 2021)
